Measurements from ChEMBL document CHEMBL1143033, “Nodulisporol and Nodulisporone, novel specific inhibitors of human DNA polymerase lambda from a fungus, Nodulisporium sp” (Bioorg Med Chem, 2007).
pIC50: −log10 of the molar value.

How the values were obtained:
[1] = Inhibition of calf DNA polymerase alpha; design: species or system Bos taurus
DNA polymerase beta = DNA polymerase beta (Rattus norvegicus, UniProt P06766); assay: Inhibition of rat DNA polymerase beta
[2] = Inhibition of human DNA polymerase gamma
[3] = target: T1, DNA polymerase delta catalytic subunit (Homo sapiens, UniProt P28340); assay: Inhibition of human DNA polymerase delta
T1 sequence (P28340 whole entry): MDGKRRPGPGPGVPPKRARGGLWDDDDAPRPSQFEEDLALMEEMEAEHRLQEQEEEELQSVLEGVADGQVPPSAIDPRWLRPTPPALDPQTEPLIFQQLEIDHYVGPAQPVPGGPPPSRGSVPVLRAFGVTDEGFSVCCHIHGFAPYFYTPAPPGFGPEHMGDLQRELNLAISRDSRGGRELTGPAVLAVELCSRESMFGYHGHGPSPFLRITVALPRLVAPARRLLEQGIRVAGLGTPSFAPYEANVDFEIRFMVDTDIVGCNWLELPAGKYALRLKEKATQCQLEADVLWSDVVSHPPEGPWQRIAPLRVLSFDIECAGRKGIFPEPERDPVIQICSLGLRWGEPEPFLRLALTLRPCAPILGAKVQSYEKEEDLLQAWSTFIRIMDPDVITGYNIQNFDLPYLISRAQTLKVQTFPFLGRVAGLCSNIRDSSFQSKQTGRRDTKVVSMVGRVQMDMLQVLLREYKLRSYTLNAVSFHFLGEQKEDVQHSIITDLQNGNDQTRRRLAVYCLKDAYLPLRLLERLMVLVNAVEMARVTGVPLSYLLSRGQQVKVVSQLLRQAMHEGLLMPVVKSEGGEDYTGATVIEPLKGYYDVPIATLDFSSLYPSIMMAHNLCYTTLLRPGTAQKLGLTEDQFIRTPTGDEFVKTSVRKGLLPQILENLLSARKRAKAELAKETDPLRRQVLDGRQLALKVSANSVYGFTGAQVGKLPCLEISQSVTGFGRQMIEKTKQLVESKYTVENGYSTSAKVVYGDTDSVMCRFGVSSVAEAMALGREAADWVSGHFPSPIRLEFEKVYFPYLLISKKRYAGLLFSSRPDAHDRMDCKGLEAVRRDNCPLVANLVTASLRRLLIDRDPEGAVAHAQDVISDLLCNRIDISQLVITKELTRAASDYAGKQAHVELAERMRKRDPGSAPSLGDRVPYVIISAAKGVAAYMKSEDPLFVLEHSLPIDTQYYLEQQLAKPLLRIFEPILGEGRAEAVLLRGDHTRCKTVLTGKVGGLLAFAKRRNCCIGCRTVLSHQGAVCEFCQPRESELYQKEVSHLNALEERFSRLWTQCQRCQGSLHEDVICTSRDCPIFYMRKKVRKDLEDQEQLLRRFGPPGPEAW

[4] = Inhibition of human DNA polymerase epsilon
DNA polymerase lambda = target: T2, DNA polymerase lambda (Homo sapiens, UniProt Q9UGP5); assay: Inhibition of human DNA polymerase lambda
T2 sequence (Q9UGP5 whole entry): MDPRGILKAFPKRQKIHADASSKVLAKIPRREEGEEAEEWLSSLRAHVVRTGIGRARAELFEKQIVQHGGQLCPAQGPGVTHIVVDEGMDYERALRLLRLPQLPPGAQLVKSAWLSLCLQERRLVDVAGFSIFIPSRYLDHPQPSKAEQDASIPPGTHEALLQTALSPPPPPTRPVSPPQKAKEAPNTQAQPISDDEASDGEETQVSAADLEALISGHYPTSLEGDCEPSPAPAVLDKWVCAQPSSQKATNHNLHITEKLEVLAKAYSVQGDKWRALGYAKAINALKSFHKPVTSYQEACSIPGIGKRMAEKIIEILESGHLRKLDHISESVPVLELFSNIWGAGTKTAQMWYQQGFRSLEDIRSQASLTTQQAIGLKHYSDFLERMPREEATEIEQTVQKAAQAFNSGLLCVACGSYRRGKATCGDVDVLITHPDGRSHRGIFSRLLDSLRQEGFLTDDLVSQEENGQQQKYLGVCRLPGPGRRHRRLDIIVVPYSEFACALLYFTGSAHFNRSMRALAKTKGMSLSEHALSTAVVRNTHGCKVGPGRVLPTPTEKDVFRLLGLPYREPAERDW

Row | pIC50 [1] | pIC50 (DNA polymerase beta) | pIC50 [2] | pIC50 [3] | pIC50 [4] | pIC50 (DNA polymerase lambda) | SMILES
1 | < 3.00 | < 3.00 | < 3.00 | < 3.00 | < 3.00 | 3.34 | COc1cc(O)c2c(=O)c(CO)c(C)oc2c1
2 | < 3.00 | < 3.00 | < 3.00 | < 3.00 | < 3.00 | 3.56 | CC1Cc2c(C=O)ccc(O)c2C(=O)O1 (configuration not stated)
3 | < 3.00 | < 3.00 | < 3.00 | < 3.00 | < 3.00 | 3.50 | CC1Cc2cccc(O)c2C(=O)O1 (configuration not stated) [MELLEIN]
4 | < 3.00 | < 3.00 | < 3.00 | < 3.00 | < 3.00 | 3.77 | COc1cccc2c1C(O)CCC2O (configuration not stated) [NODULISPOROL]
5 | < 3.00 | < 3.00 | < 3.00 | < 3.00 | < 3.00 | 3.74 | COc1cccc2c1C(=O)OC(C)C2 (configuration not stated)
6 | < 3.00 | < 3.00 | < 3.00 | < 3.00 | < 3.00 | 4.09 | COc1cccc2c1C(=O)CCC2O (configuration not stated) [NODULISPORONE]
7 | < 3.00 | < 3.00 | < 3.00 | < 3.00 | < 3.00 | 4.31 | COc1ccc(C)c2c1C(=O)OC(C)C2 (configuration not stated)
